The results in this text go back to article PMC10861560, “Exploiting epigenetic targets to overcome taxane resistance in prostate cancer” (Cell Death & Disease, 2024).

The target of the data set is T1, ABCB1 (MDR1) (Homo sapiens, UniProt P08183).
T1 construct: endogenous full-length protein in intact Du145-DtxR cells, detected by western blot after heat shock
The data set can be described thus: cellular thermal shift assay (CETSA), western blot. It counts as cell-based. Particulars: 5 µM, intact Du145-DtxR cells, 1 h at 37 °C, heat shock 44-52 °C; positive control.

T1 sequence (P08183 whole entry): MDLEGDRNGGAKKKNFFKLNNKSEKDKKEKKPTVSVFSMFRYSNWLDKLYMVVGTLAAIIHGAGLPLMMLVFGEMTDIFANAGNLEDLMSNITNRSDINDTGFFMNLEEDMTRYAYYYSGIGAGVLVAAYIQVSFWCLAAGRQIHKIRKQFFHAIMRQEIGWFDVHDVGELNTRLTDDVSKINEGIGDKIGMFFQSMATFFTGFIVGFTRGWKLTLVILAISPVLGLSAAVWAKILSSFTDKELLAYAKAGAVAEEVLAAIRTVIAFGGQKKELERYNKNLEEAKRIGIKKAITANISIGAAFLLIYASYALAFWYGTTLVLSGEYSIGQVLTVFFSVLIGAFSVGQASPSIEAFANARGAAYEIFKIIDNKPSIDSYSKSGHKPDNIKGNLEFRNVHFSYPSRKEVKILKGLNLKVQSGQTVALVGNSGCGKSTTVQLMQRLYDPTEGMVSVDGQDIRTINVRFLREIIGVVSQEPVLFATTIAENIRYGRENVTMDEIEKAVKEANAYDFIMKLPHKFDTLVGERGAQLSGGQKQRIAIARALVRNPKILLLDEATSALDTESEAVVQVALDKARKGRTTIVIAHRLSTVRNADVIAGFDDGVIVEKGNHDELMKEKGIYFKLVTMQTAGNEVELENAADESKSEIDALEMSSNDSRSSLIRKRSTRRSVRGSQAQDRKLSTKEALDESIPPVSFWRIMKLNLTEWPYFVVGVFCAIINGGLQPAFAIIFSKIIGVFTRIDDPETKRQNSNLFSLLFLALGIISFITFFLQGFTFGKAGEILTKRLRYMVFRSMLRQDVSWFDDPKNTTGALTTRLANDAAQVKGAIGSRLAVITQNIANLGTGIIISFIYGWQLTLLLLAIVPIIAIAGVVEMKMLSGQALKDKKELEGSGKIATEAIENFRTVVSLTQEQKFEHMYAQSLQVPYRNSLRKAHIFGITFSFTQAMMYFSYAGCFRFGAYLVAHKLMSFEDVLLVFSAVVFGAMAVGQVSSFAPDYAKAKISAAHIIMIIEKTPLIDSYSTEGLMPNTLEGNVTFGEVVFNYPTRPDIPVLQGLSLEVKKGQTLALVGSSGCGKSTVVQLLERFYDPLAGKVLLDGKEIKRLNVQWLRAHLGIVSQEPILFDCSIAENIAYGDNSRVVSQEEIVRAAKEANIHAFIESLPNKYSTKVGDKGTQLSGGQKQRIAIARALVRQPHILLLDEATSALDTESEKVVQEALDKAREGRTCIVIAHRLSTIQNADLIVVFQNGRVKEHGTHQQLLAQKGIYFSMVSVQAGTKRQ

For the compound `O[C@@H](COc1cccc2ncccc12)CN1CCN([C@@H]2c3ccccc3[C@@H]3[C@H](c4ccccc42)C3(F)F)CC1` [Zosuquidar], the “cellular thermal shift assay (CETSA), western blot” value is given as “it showed an ABCB1-binding compared to DMSO (Fig. 3H)”.
